Assay [1] addresses T1, transporters associated with processing (Mus musculus, UniProt P21958+P36371).
T1 sequence (P21958 1-724): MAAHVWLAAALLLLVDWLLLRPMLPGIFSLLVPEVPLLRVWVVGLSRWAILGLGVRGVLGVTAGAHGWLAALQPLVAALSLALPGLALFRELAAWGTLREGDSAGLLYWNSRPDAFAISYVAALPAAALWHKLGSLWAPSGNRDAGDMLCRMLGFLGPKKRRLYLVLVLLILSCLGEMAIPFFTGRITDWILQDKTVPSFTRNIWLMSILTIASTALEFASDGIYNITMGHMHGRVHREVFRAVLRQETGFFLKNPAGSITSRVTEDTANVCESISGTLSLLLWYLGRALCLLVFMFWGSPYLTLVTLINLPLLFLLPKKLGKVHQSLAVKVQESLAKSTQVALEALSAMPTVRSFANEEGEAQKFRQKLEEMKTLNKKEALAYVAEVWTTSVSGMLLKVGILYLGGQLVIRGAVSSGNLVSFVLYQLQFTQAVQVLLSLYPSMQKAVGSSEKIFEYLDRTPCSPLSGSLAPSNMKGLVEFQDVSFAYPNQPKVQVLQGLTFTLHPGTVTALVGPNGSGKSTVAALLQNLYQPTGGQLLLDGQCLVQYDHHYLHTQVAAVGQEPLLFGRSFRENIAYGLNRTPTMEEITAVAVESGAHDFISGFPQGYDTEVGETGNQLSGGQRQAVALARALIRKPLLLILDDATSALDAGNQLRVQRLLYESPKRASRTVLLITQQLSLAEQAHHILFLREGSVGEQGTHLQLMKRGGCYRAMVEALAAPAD
T1 sequence (P36371 1-702): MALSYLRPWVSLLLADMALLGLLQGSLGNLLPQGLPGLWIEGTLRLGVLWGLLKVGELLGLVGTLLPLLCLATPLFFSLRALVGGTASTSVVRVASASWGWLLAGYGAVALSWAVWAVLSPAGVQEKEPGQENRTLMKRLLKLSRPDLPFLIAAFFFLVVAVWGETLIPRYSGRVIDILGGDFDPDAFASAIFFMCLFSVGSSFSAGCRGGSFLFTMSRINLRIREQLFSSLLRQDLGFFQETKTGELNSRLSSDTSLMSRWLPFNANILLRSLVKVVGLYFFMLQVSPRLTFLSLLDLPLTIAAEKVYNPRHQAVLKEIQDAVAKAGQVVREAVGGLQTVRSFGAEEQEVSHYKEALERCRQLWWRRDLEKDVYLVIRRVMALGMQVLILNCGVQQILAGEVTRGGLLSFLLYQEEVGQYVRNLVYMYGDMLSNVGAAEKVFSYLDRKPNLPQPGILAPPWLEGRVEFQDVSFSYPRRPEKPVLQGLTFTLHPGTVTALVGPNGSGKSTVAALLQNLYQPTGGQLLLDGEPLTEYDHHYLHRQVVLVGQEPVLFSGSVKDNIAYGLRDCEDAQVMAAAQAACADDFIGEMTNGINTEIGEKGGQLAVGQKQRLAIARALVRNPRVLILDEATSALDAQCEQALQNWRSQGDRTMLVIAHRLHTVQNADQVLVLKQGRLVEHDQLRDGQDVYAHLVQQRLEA
Kind of assay: Transporter associated with processing. The class given is biochemical.

The target in the next assay is H-2K^b (Mus musculus, UniProt P01901). The assay is described as follows: Peptide competition cytotoxicity assay. The class given is cell-based, murine.

Ends that are not written are not given here.

On to AIYKKSQHM, for which the IC50 (commonly the concentration at which inhibition is half-maximal) is 4.07 µM in assay [1] and 0.271 µM at H-2K^b.

Consider LNKLFCQL, for which the IC50 in assay [1] is 7.16 µM; at H-2K^b, 2.04 µM.

In turn, TTIHYKYM showed an IC50 in assay [1] of 5.68 µM.

Consider TYSPPLNKL, for which the IC50 in assay [1] is 5.81 µM; at H-2K^b, 13.6 µM.

As to VMCTYSPPL, in assay [1], the IC50 was 2.47 µM.

In the case of YSPPLNKLF, the IC50 in assay [1] is greater than 92.7 µM; at H-2K^b, 0.464 µM.

Values taken from publication PMC2199025 (The Journal of Experimental Medicine, 1997).
